What was measured:
[1] = test system: kochia; experiment: Test C postemergence; assay type: in vivo, Bassia scoparia; conditions: 10 days
How it was run: (§1)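 Visual injury score, 0–100 (100 = complete control), taken 10 days after treatment relative to untreated controls. Pre: directed spray onto soil over sown seeds. Post: foliar spray at one- to two-leaf stage, 2–10 cm. Solvent/surfactant formulation; loam–sand soil; greenhouse.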

[2] = test system: ragweed; experiment: Test C preemergence; assay type: in vivo, Ambrosia artemisiifolia; conditions: for Plant response rating, Ragweed: Preemergence; for Ragweed plant response rating: preemergence
How it was run: as §1

[3] = test system: oat, wild; experiment: Test C preemergence; assay type: in vivo, Avena fatua; conditions: for Plant response rating, Oat, Wild: Preemergence; for Oat, Wild plant response rating: preemergence
How it was run: as §1

[4] = test system: corn; experiment: Test C postemergence; assay type: in vivo, Zea mays; conditions: 10 days
How it was run: as §1

[5] = test system: soybean; experiment: Test C postemergence; assay type: in vivo, Glycine max; conditions: 10 days
How it was run: as §1

[6] = test system: pigweed, palmer; experiment: Test C postemergence; assay type: in vivo, Amaranthus palmeri; conditions: 10 days
How it was run: as §1

[7] = test system: blackgrass; experiment: Test C postemergence; assay type: in vivo, Alopecurus myosuroides; conditions: 10 days
How it was run: as §1

[8] = test system: ryegrass, Italian; experiment: Test C postemergence; assay type: in vivo, Lolium multiflorum; conditions: 10 days
How it was run: as §1

[9] = test system: ducksalad; experiment: Test D flooded paddy test; assay type: in vivo, Heteranthera limosa; conditions: 250 g ai/ha, applied to paddy water, visual rating after 13 to 14 days, scale 0 to 100 (0 no effect, 100 complete control)
How it was run: (§2)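 Seedlings reached the 2-leaf stage, then pots were flooded to 3 cm over the soil surface. Compound was applied into the water, depth was maintained, and plants stayed in the greenhouse 13 to 14 days before visual scoring (0–100) relative to controls.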

[10] = test system: soybean; experiment: Test C preemergence; assay type: in vivo, Glycine max; conditions: for Plant response rating, Soybean: Preemergence; for Soybean plant response rating: preemergence
How it was run: as §1

[11] = test system: galium; experiment: Test C postemergence; assay type: in vivo, Galium aparine; conditions: 10 days
How it was run: as §1

[12] = test system: wheat; experiment: Test C preemergence; assay type: in vivo, Triticum aestivum; conditions: for Plant response rating, Wheat: Preemergence; for Wheat plant response rating: preemergence
How it was run: as §1

[13] = test system: barnyardgrass; experiment: Test D flooded paddy test; assay type: in vivo, Echinochloa crus-galli; conditions: 250 g ai/ha, applied to paddy water, visual rating after 13 to 14 days, scale 0 to 100 (0 no effect, 100 complete control)
How it was run: as §2

[14] = test system: ryegrass, Italian; experiment: Test C preemergence; assay type: in vivo, Lolium multiflorum; conditions: for Plant response rating, Ryegrass, Italian: Preemergence; for Ryegrass, Italian plant response rating: preemergence
How it was run: as §1

[15] = test system: barnyardgrass; experiment: Test C preemergence; assay type: in vivo, Echinochloa crusgalli; conditions: for Plant response rating, Barnyardgrass: Preemergence
How it was run: as §1

[16] = test system: ragweed; experiment: Test C postemergence; assay type: in vivo, Ambrosia artemisiifolia; conditions: 10 days
How it was run: as §1

[17] = test system: kochia; experiment: Test C preemergence; assay type: in vivo, Bassia scoparia; conditions: for Plant response rating, Kochia: Preemergence; for Kochia plant response rating: preemergence
How it was run: as §1

[18] = test system: corn; experiment: Test C preemergence; assay type: in vivo, Zea mays; conditions: for Plant response rating, Corn: Preemergence; for Corn plant response rating: preemergence
How it was run: as §1

[19] = test system: green foxtail; experiment: Test C preemergence; assay type: in vivo, Setaria viridis; conditions: for Plant response rating, Foxtail, Green: Preemergence; for Foxtail, Green plant response rating: preemergence
How it was run: as §1

[20] = test system: blackgrass; experiment: Test C preemergence; assay type: in vivo, Alopecurus myosuroides; conditions: for Plant response rating, Blackgrass: Preemergence; for Blackgrass plant response rating: preemergence
How it was run: as §1

[21] = test system: wheat; experiment: Test C postemergence; assay type: in vivo, Triticum aestivum; conditions: 10 days
How it was run: as §1

[22] = test system: horseweed; experiment: Test C postemergence; assay type: in vivo, Erigeron canadensis; conditions: 10 days
How it was run: as §1

[23] = test system: rice; experiment: Test D flooded paddy test; assay type: in vivo, Oryza sativa; conditions: 250 g ai/ha, applied to paddy water, visual rating after 13 to 14 days, scale 0 to 100 (0 no effect, 100 complete control)
How it was run: as §2

[24] = test system: sedge, umbrella; experiment: Test D flooded paddy test; assay type: in vivo, Cyperus difformis; conditions: 250 g ai/ha, applied to paddy water, visual rating after 13 to 14 days, scale 0 to 100 (0 no effect, 100 complete control)
How it was run: as §2

[25] = test system: green foxtail; experiment: Test C postemergence; assay type: in vivo, Setaria viridis; conditions: 10 days
How it was run: as §1

[26] = test system: barnyardgrass; experiment: Test C postemergence; assay type: in vivo, Echinochloa crusgalli; conditions: 10 days
How it was run: as §1

[27] = test system: pigweed, palmer; experiment: Test C preemergence; assay type: in vivo, Amaranthus palmeri; conditions: for Plant response rating, Pigweed, Palmer: Preemergence; for Pigweed, Palmer plant response rating: preemergence
How it was run: as §1

[28] = test system: oat, wild; experiment: Test C postemergence; assay type: in vivo, Avena fatua; conditions: 10 days
How it was run: as §1

[29] = 125 g ai/ha, postemergence, 0 to 100 scale, 0 no effect, 100 complete control
[30] = Postemergence, 500 g ai/ha, visual 0 to 100 scale (0 no effect, 100 complete control)
[31] = 500 g ai/ha, visual rating after 10 days, 0 to 100 scale (0 no effect, 100 complete control)
[32] = Test C, 125 g ai/ha, 0 to 100 scale (0 no effect, 100 complete control)
[33] = 500 g ai/ha, postemergence, 0 to 100 scale (0 no effect, 100 complete control)
[34] = Postemergence, 125 g ai/ha, 0 to 100 scale (0 no effect, 100 complete control)
[35] = 500 g ai/ha, 0 to 100 scale (0 no effect, 100 complete control)
[36] = 125 g ai/ha, 0 to 100 scale, 0 no effect, 100 complete control

CCc1ccc(-n2cnc(C(C)C)n2)cc1C(=O)N1C[C@H](C)Oc2c(C)cccc21 [Compound 240]
Plant response rating, Kochia [1, 29]: 30 | Plant response rating, Kochia [1, 30]: 90 | Plant response rating, Ragweed [2, 31]: 20 | Ragweed plant response rating [2, 32]: 10 | Plant response rating, Oat, Wild [3, 31]: 90 | Oat, Wild plant response rating [3, 32]: 90 | Plant response rating, Corn [4, 29]: 60 | Plant response rating, Corn [4, 30]: 80 | Plant response rating, Soybean [5, 29]: 100 | Plant response rating, Soybean [5, 30]: 100 | Plant response rating, Pigweed, Palmer [6, 29]: 90 | Plant response rating, Pigweed, Palmer [6, 30]: 100 | Plant response rating, Blackgrass [7, 29]: 80 | Plant response rating, Blackgrass [7, 30]: 90 | Plant response rating, Ryegrass, Italian [8, 29]: 70 | Plant response rating, Ryegrass, Italian [8, 30]: 90 | Plant response rating, Ducksalad (Flood) [9]: 80 | Plant response rating, Soybean [10, 31]: 100 | Soybean plant response rating [10, 32]: 100 | Plant response rating, Galium [11, 29]: 100 | Plant response rating, Galium [11, 30]: 100 | Plant response rating, Wheat [12, 31]: 90 | Wheat plant response rating [12, 32]: 60 | Plant response rating, Barnyardgrass (Flood) [13]: 35 | Plant response rating, Ryegrass, Italian [14, 31]: 100 | Ryegrass, Italian plant response rating [14, 32]: 100 | Plant response rating, Barnyardgrass [15, 31]: 100 | Barnyardgrass plant response rating ([15]; Test C, preemergence, 125 g ai/ha, 0 to 100 scale (0 no effect, 100 complete control)): 90 | Plant response rating, Ragweed [16, 29]: 50 | Plant response rating, Ragweed [16, 30]: 80 | Plant response rating, Kochia [17, 31]: 100 | Kochia plant response rating [17, 32]: 70 | Plant response rating, Corn [18, 31]: 60 | Corn plant response rating [18, 32]: 70 | Plant response rating, Foxtail, Green [19, 31]: 100 | Foxtail, Green plant response rating [19, 32]: 100 | Plant response rating, Blackgrass [20, 31]: 90 | Blackgrass plant response rating [20, 32]: 60 | Plant response rating, Wheat [21, 29]: 20 | Plant response rating, Wheat [21, 30]: 50 | Plant response rating, Horseweed [22, 29]: 0 | Plant response rating, Horseweed [22, 30]: 70 | Plant response rating, Rice (Flood) [23]: 10 | Plant response rating, Sedge, Umbrella (Flood) [24]: 100 | Plant response rating, Foxtail, Green [25, 29]: 80 | Plant response rating, Foxtail, Green [25, 30]: 90 | Plant response rating, Barnyardgrass [26, 29]: 40 | Plant response rating, Barnyardgrass [26, 30]: 80 | Plant response rating, Pigweed, Palmer [27, 31]: 100 | Pigweed, Palmer plant response rating [27, 32]: 100 | Plant response rating, Oat, Wild [28, 29]: 60 | Plant response rating, Oat, Wild [28, 30]: 70

CSc1ccc(-n2cnc(C(C)C)n2)cc1C(=O)N1C[C@H](C)Oc2c(Cl)cccc21 [Compound 391]
Plant response rating, Kochia [1, 33]: 100 | Plant response rating, Kochia [1, 34]: 100 | Ragweed plant response rating [2, 35]: 60 | Plant response rating, Ragweed [2, 36]: 10 | Oat, Wild plant response rating [3, 35]: 80 | Plant response rating, Oat, Wild [3, 36]: 30 | Plant response rating, Corn [4, 33]: 60 | Plant response rating, Corn [4, 34]: 60 | Plant response rating, Soybean [5, 33]: 100 | Plant response rating, Soybean [5, 34]: 100 | Plant response rating, Pigweed, Palmer [6, 33]: 100 | Plant response rating, Pigweed, Palmer [6, 34]: 90 | Plant response rating, Blackgrass [7, 33]: 80 | Plant response rating, Blackgrass [7, 34]: 60 | Plant response rating, Ryegrass, Italian [8, 33]: 100 | Plant response rating, Ryegrass, Italian [8, 34]: 50 | Plant response rating, Ducksalad (Flood) [9]: 35 | Soybean plant response rating [10, 35]: 90 | Plant response rating, Soybean [10, 36]: 50 | Plant response rating, Galium [11, 33]: 100 | Plant response rating, Galium [11, 34]: 100 | Wheat plant response rating [12, 35]: 30 | Plant response rating, Wheat [12, 36]: 0 | Plant response rating, Barnyardgrass (Flood) [13]: 10 | Ryegrass, Italian plant response rating [14, 35]: 90 | Plant response rating, Ryegrass, Italian [14, 36]: 20 | Plant response rating, Barnyardgrass [15, 36]: 60 | Plant response rating, Ragweed [16, 33]: 90 | Plant response rating, Ragweed [16, 34]: 60 | Kochia plant response rating [17, 35]: 100 | Plant response rating, Kochia [17, 36]: 90 | Corn plant response rating [18, 35]: 20 | Plant response rating, Corn [18, 36]: 20 | Foxtail, Green plant response rating [19, 35]: 100 | Plant response rating, Foxtail, Green [19, 36]: 100 | Blackgrass plant response rating [20, 35]: 80 | Plant response rating, Blackgrass [20, 36]: 50 | Plant response rating, Wheat [21, 33]: 40 | Plant response rating, Wheat [21, 34]: 30 | Plant response rating, Horseweed [22, 33]: 60 | Plant response rating, Horseweed [22, 34]: 0 | Plant response rating, Rice (Flood) [23]: 0 | Plant response rating, Sedge, Umbrella (Flood) [24]: 45 | Plant response rating, Foxtail, Green [25, 33]: 80 | Plant response rating, Foxtail, Green [25, 34]: 70 | Plant response rating, Barnyardgrass [26, 33]: 60 | Plant response rating, Barnyardgrass [26, 34]: 40 | Pigweed, Palmer plant response rating [27, 35]: 100 | Plant response rating, Pigweed, Palmer [27, 36]: 100 | Plant response rating, Oat, Wild [28, 33]: 80 | Plant response rating, Oat, Wild [28, 34]: 30

Source: patent US20260262643A1, “HERBICIDAL BENZOXAZINES” (FMC CORPORATION, priority 2022, published 2026)
